The subject of one series is loricrin (LOR). Briefly: Gene expression by real-time PCR in 3D model of in vitro reconstituted skin (EpiDermFT). The class given is cell-based. Conditions: vs control. The text has this:
(§1) Evaluation of the gene expression of some cytokines (IL-25, IL-33, IL-37) and of filaggrin (FLG), involucrin (IVL) and loricrin (LOR) in a complex 3D model of in vitro reconstituted skin (EpiDermFT - MATTEK).
(§2) The 3D models of in vitro reconstituted skin constitute optimum systems capable of simulating well the functionalities of a complex organ such as skin and the interactions which are established between numerous cell populations composing it. Then, they try to free from the excessive simplification represented by one single cell line put in culture. The cytokines IL-25 and IL-33 are pro-inflammatory cytokines over-produced by the keratinocytes and by the surface layers of the skin after an insult; on the contrary the cytokine IL-37 is an anti-inflammatory cytokine. At last, the proteins filaggrin (FLG), involucrin (IVL) and loricrin (LOR), are proteins produced by epidermis, fundamental in the constitution of the barrier which protects from external agents and respond to cytokine signals. In particular, during an inflammatory event, the expression of these genes is sub-regulated; on the contrary, an anti-inflammatory state tends to over-express the genes FLG, IVL, LOR.
(§3) The extraction of total RNA was performed by QlAzol Lysis Reagent by following the instructions provided by the firm (Qiagen). The retro-transcription reactions were performed on 4 µg of total RNA by following the instructions provided by the protocol of the kit PROMEGA "GoTaq 2 Step RT qPCR System". The amplification for determining the gene expression, by real-time PCR technique, was performed on BioRad CFX96 machine and the related quantification was performed by the method of 2^-ΔΔCt.
On the technique in general: In qPCR the cycle at which signal appears reflects the starting amount.

The test system of the next series is IL-37. The series is described as above. Conditions: vs control, after 24 hours. The class given is cell-based.
Description: as §1, §2, §3

A further series has as its system filaggrin (FLG). The series is described as above. Conditions: vs control. The class given is cell-based.
Description: as §1, §2, §3

Another series concerns involucrin (IVL). Described as above. The class given is cell-based. Conditions: vs control.
Description: as §1, §2, §3

The next series concerns HaCat. cells. The class given is cell-based. The text has this: MTT test is a colorimetric assay which exploits the capability of cells to convert, at mitochondrial level, the bromide of 3-(4,5-dimethylthiazol-2-il)-2,5-diphenyltetrazolium in the related salt, by evaluating the cell viability. The produced salt is solubilized in organic solvent in order to obtain a homogeneous solution in the single well, measurable spectrophotometrically. Besides, the crystal violet assay is based upon the capability of the homonymous […] dye to bind to DNA of the cells in culture and to return in this way a reliable estimation of the number of cells. […] Before colouring, washings in PBS were carried out. 50 µL of dye (MTT (5 mg/mL in PBS); Crystal violet (2,5 mg/mL in MeOH 20%)) were then added to each well and left in incubation at 37°C for 2 hours (MTT) or stirred on tilting plate for 20 min (Crystal violet). The exceeding dye was washed and the dye was solubilized in organic solvent (DMSO) in order to obtain a homogenous solution in the single well, measurable spectrophotometrically. The measurement of absorbance of the single wells was performed in a plate reader, at the wavelength of 570 nm, by normalizing the values with respect to the control.

A further series deals with L. reuteri LMG P-27481. Description: Tolerance test: vitality of L. reuteri LMG P-27481 in presence of resveratrol in simulated saliva. The class given is cell-based, Lactobacillus (Limosilactobacillus) reuteri. As to the method: The simulated saliva (SS) was prepared with 8 g/l of sodium chloride, 0.19 g/l monobasic potassium phosphate, 2.38 g/l sodium phosphate (pH 6.8) and then sterilized (Alanzi et al., 2018). The cryopreserve stock of L. reuteri LMG P-27481 strain was controlled in order to verify the purity thereof and then cultivated on MRS Broth (De Man Rogosa Sharpe, Difco) under microaerophilic conditions at 37°C for 18 hours. The cultures in MRS broth of L. reuteri LMG P-27481 grown under microaerophilic conditions at 37°C for 18 hours were centrifuged, the supernatant discarded an the pellets were washed with sterile demineralized water. […] A test tube with only SS was used as positive control of survival. L. reuteri LMG P-27481 was analysed according to the standard of Mc Farland in order to obtain a vital load of 3×10^8 CFU/ml in the test tubes. […] Aliquots were collected after 5, 10, 30 and 60 minutes for determining vitality. All plates were incubated for 72 hours at 37°C under anaerobic conditions.

The subject of series [1] is Haemophilus influenzae DSM 4690. Description: MIC determination by plate microdilution. The class given is cell-based. Conditions: DSM4690, H. influenzae, 24 hours at 37°C, anaerobiosis. The method, then:
(§4) The supernatant from Streptococcus salivarius K12 was used as reference. To this purpose, the Minimum Inhibitory Concentration (MIC) was evaluated. The pathogen microorganisms were the following ones: Staphylococcus aureus NCTC 6571, Streptococcus pyogenes LMG 21599, Streptococcus pneumoniae DSM 20566, Moraxella chatarralis DSM 9143, Haemophilus influenzae DSM 4690.
(§5) L. reuteri LMG P-27481 and S. salivarius K12 were subcultivated on agar plates from cryopreserved cultures. All pathogens, except for H. influenzae DSM 4690, were cultivated on agar BHI (Brain Heart Infusion, Oxoid). The subculture of H. influenzae DSM 4690 requested the presence of traces of lysed red blood cells in the medium.
(§6) In short, the supernatants were obtained for centrifugation of liquid cultures of L. reuteri LMG P27481 and S. salivarius K12, sterilized by filtration. The aliquots were diluted in series for determining the vital count. The supernatants were diluted in series from 100% to 0.19% (v:v).
(§7) The pathogen strains were dosed optically by using the spectrophotometer at OD600 between 0.08-0.100 and diluted 100 times in Schaedler broth or sterile supernatants (to obtain the concentration of 100%).
(§8) All samples were incubated for 24 hours at 37°C under aerobic conditions for all strains except for H. influenzae DSM 4690 which required anaerobiosis conditions.
(§9) Moreover, a control with serial dilutions of DMSO was performed in order to exclude that the presence of this diluent could exert an inhibitory effect on the pathogens.
For orientation: Broth dilution looks for growth in wells or tubes with falling amounts of substance.

For series [2], the system named is Moraxella chatarralis DSM 9143. Briefly: MIC determination by plate microdilution. The class given is cell-based. Conditions: DSM9143, M. chatarralis, 24 hours at 37°C. The method, then:
as §4, §5, §6, §7, §8, §9

For series [3], the system named is Streptococcus pyogenes LMG 21599. Briefly: MIC determination by plate microdilution. The class given is cell-based. Conditions: LMG21599, S. pyogenes, 24 hours at 37°C. The method, then:
as §4, §5, §6, §7, §8, §9

Series [4] has as its system Staphylococcus aureus NCTC 6571. Briefly: MIC determination by plate microdilution. The class given is cell-based. Conditions: NCTC6571, S. aureus, 24 hours at 37°C. The method, then:
as §4, §5, §6, §7, §8, §9

The test system of series [5] is Streptococcus pneumoniae DSM 20566. Briefly: MIC determination by plate microdilution. Conditions: DSM20566, S. pneumoniae, 24 hours at 37°C. The class given is cell-based. As to the method: as §4, §5, §6, §7, §8, §9
The next series has as its system all tested pathogens. Description: MIC determination, summary over all tested pathogens. The class given is cell-based. Conditions: range over all tested pathogens. As to the method:
as §4, §5, §6, §7
All samples were incubated for 24 hours at 37°C under aerobic conditions for all strains except for H. influenzae DSM 4690 which required anaerobiosis conditions. […]

The nature of series [6]: NBT assay of antioxidant activity (superoxide scavenging). The class given is biochemical. Conditions: NBT Test (O2^-•); read-out: Scavenging activity of the free radicals IC50.
Description: For the inactivation of bacteria by heat, one started at a concentration of 4×10^9 CFU/mL. The bacteria were then centrifuged at 4000 rpm for 10 minutes, the supernatant discarded and replaced with 1 ml of 0.9% NaCl saline solution. The heat inactivation occurred at the temperature of 85°C for 15 minutes.
NBT assay (nitrobluetetrazolium) evaluates the capability of locking the formation of the superoxide radical ^·O2^-; the more ^·O2^- is produced, the more NBT is reduced in formazan. The capability of molecules and compounds to inhibit the NBT reduction by ^·O2^- in presence of β-nicotinammide adenin dinucleotide (β-NADH) and phenazinamethosulfate (PM) is then tested.
The spectrophometric reading was performed by kinetics, by measuring the OD values (λmax 560 nm) immediately and after 15 sec. The absorbance variation was used to calculate the inhibition percentage with respect to the control (solution of EtOH and of the solvent in which the different samples are dissolved).
To this purpose, on previously heat inactivated mixtures of bacteria, 8 serial dilutions were performed according to the scheme reported in figure 1; 20 µL of each dilution were then used in all assays of antioxidant activity according to the protocol indications.

Structures are written as SMILES. Converted amounts (≈) assume the structure as drawn.

Regarding `Oc1ccc(/C=C/c2cc(O)cc(O)c2)cc1` [Resveratrol, 3,5,4'-trihydroxy-trans-stilbene], the “expression of LOR” value in the series on loricrin (LOR) was “minimum expression variations”. Also, the “expression of IL-37” value in the series on IL-37 is “under-expression”. Further, the “expression of FLG” value in the series on filaggrin (FLG) is reported as “minimum expression variations”. The “expression of IVL” value in the series with involucrin (IVL) is listed as “minimum expression variations”. For the same compound, the “cell count (crystal violet)” value with HaCat. cells was “decrease in vitality and cell count”. In addition, the “cell viability (MTT)” value in the series with HaCat. cells was “decrease in vitality”. Besides, the “%S (% of survival of microorganisms)” value is listed as 99.9% in the series on L. reuteri LMG P-27481 (SS + 0.5 mg/ml Resveratrol, T5); 99.6% in the series with L. reuteri LMG P-27481 (SS + 0.5 mg/ml Resveratrol, T10); 99.3% in the series with L. reuteri LMG P-27481 (SS + 0.5 mg/ml Resveratrol, T30); 99.2% in the series with L. reuteri LMG P-27481 (SS + 0.5 mg/ml Resveratrol, T60); 99.8% with L. reuteri LMG P-27481 (SS + 1 mg/ml Resveratrol, T5); 99.6% with L. reuteri LMG P-27481 (SS + 1 mg/ml Resveratrol, T10). The “%S (% of survival of microorganisms)” value in the series on L. reuteri LMG P-27481 (SS + 1 mg/ml Resveratrol, T30) was 99.6%; in the series with L. reuteri LMG P-27481 (SS + 1 mg/ml Resveratrol, T60), 99.4%; with L. reuteri LMG P-27481 (SS + 2.5 mg/ml Resveratrol, T5) it was 99.9%; in the series on L. reuteri LMG P-27481 (SS + 2.5 mg/ml Resveratrol, T10), 99.6%; in the series on L. reuteri LMG P-27481 (SS + 2.5 mg/ml Resveratrol, T30), 99.5%; in the series on L. reuteri LMG P-27481 (SS + 2.5 mg/ml Resveratrol, T60), 99.2%. Also, the “%S (% of survival of microorganisms)” value in the series with L. reuteri LMG P-27481 (SS + 5 mg/ml Resveratrol, T5 (5 minutes contact), 3×10^8 CFU/ml) is recorded as 99.7%; with L. reuteri LMG P-27481 (SS + 5 mg/ml Resveratrol, T10), 99.5%; in the series on L. reuteri LMG P-27481 (SS + 5 mg/ml Resveratrol, T30), 99.3%; with L. reuteri LMG P-27481 (SS + 5 mg/ml Resveratrol, T60), 99.0%; in the series with L. reuteri LMG P-27481 (SS + 5 mg/ml Resveratrol, T60, listed as resveratrol), “higher than 99%”. The MIC was 80 µg/mL (≈ 350 µM) in series [1]; 160 µg/mL (≈ 701 µM) in [2]; 160 µg/mL (≈ 701 µM) in series [3]; 160 µg/mL (≈ 701 µM) in series [4]; 80 µg/mL (≈ 350 µM) in series [5]. In the series with all tested pathogens, the inhibiting concentrations fell in the range of 80 to 160 µg/mL.

The IC50 is the concentration that inhibits the measured activity by half. With `O=C1O[C@H]([C@@H](O)CO)C(O)=C1O` [Ascorbic Acid], the IC50 in series [6] came to 665 ± 26 µM.

Values taken from patent EP4427758A1, “NEW SYNERGISTIC ANTI-INFLAMMATORY, ANTIOXIDANT AND ANTIBACTERIAL ASSOCIATION” (NOOS S.r.l., priority 2023, dated 2024).
